Test results as given in US11231421B2, “Methods of treating multifocal cancer” (NYMOX CORPORATION, priority 2019, dated 2022).
Where no end group is shown, it is not given here.

Assays:
[1] = tested on: low grade prostate cancer (Gleason grade 6); experiment: Clinical study, Example 1: new multifocal with Gleason upgrade in entire prostate; assay type: in vivo, human; settings: for % Imp.: new multifocal with Gleason upgrade, entire prostate: vs control active surveillance
Experimental: (§1) In a series of clinical studies a total of 146 men with low grade prostate cancer (Gleason grade 6) were treated in the following manner. Patients were randomized and treated with a transrectal intraprostatic single injection of a composition comprising 2.5 mg FT (n=49), or a composition comprising 15 mg FT (n=48), or were subject to control active surveillance (n=49). After the first follow-up biopsy at 45 days post-randomization, 18 patients in the control active surveillance group crossed over to a single administration of a composition in which 10 patients received 2.5 mg FT, and 8 patients received 15 mg FT. Patients were followed for 5 years including biopsies at baseline, 45 days, 18, 36, and 48 months, and urological evaluations with PSA every 6 months. Patients with Gleason grade increase or who elected surgical or radiotherapeutic intervention exited the study and were still included in the data analysis. Percentage of normal biopsies in the baseline focus quadrant and median tumor grade and volume were assessed; progression was measured by clinical and pathological outcomes including Gleason grade, and Gleason grade primary pattern, in the entire prostate sampled as well as for the treated prostate lobe. Interventions associated with Gleason grade increase as well as total incidence for any conventional surgical intervention (e.g., surgery, radiotherapy, and/or chemotherapy) was assessed.

[2] = tested on: low grade prostate cancer (Gleason grade 6); experiment: Clinical study, Example 3: hemi-prostate multifocal cancer with Gleason upgrade; assay type: in vivo, human; settings: for % Imp.: hemi-prostate multifocal cancer with Gleason upgrade: vs control active surveillance
Experimental: as §1

[3] = tested on: low grade prostate cancer (Gleason grade 6); experiment: Clinical study, Example 6: cancer treatment with new multifocal and an increase in Gleason grade primary pattern; assay type: in vivo, human; settings: for % Imp.: cancer treatment with new multifocal and an increase in Gleason grade primary pattern, entire prostate: vs control active surveillance
Experimental: as §1

[4] = tested on: low grade prostate cancer (Gleason grade 6); experiment: Clinical study, Example 8: cancer treatment with new multifocal and an increase in Gleason grade primary pattern in the hemi-prostate; assay type: in vivo, human; settings: for % Imp.: cancer treatment with new multifocal and an increase in Gleason grade primary pattern in the hemi-prostate: vs control active surveillance
Experimental: as §1, with “assessed. This example evaluated the percentage of patients having conventional cancer treatment (surgery, radiotherapy, or chemotherapy), and having multifocal prostate cancer in the lobe (or hemi-prostate) in which the foci were initially treated with Gleason primary pattern (cancer treatment with new multifocal and an increase in Gleason grade primary pattern in the hemi-prostate).” for “assessed.”

[5] = tested on: prostate glandular epithelial cells; experiment: In vitro tissue culture genetic array and cell effects; assay type: cell-based
Text: Use of FT is a preferred embodiment. FT is a new molecular entity which in vitro stimulates caspase pathways (activation of caspases 7, 8, and 10, caspase recruitment domains 6, 11, and 14, and DIABLO), tumor necrosis factor pathways (activation of TNF1, TNFSF6, TNFSF8, TNFSF9, CD70 ligands, and TNFRSF19L, TNFRSF25, TRAF2, TRAF3, TRAF4, TRAF6 receptors), and BCL pathways (activation of BIK, HRK, BCL2L10 and BCL3) in prostate glandular epithelial cells, based on tissue culture genetic array data. […] The apoptotic process leads to typical ultrastructural progressive changes of membranous disruption and swelling, progressively deepening nuclear invaginations with eventual membranous bleb formations and cell death and fragmentation into apoptotic bodies.

[6] = FT 2.5 mg, <=18 mos from treatment
[7] = FT 2.5 mg, <=36 mos from treatment
[8] = FT 2.5 mg, <=48 mos from treatment
[9] = FT 15 mg, <=18 mos from treatment
[10] = FT 15 mg, <=36 mos from treatment
[11] = FT 15 mg, <=48 mos from treatment
[12] = Pooled FT (2.5 mg and 15 mg), <=18 mos from treatment
[13] = Pooled FT (2.5 mg and 15 mg), <=18 mos
[14] = Pooled FT (2.5 mg and 15 mg), <=36 mos from treatment
[15] = Pooled FT (2.5 mg and 15 mg), <=36 mos
[16] = Pooled FT (2.5 mg and 15 mg), <=48 mos from treatment
[17] = Pooled FT (2.5 mg and 15 mg), <=48 mos
[18] = in vitro, tissue culture genetic array data

fexapotide triflutate (IDQQVLSRIKLEIKRCL; also: trifluoroacetate salt) [FT]
percentage of patients: new multifocal with Gleason upgrade, entire prostate [1, 6]: 13.5%
% Imp.: new multifocal with Gleason upgrade, entire prostate ([1]; FT 2.5 mg, <=18 mos): 51.4%
percentage of patients: new multifocal with Gleason upgrade, entire prostate [1, 7]: 23.1%
% Imp.: new multifocal with Gleason upgrade, entire prostate ([1]; FT 2.5 mg, <=36 mos): 47.2%
percentage of patients: new multifocal with Gleason upgrade, entire prostate [1, 8]: 50%
% Imp.: new multifocal with Gleason upgrade, entire prostate ([1]; FT 2.5 mg, <=48 mos): 12.4%
percentage of patients: new multifocal with Gleason upgrade, entire prostate [1, 9]: 5.7 (p = 0.025) %
% Imp.: new multifocal with Gleason upgrade, entire prostate ([1]; FT 15 mg, <=18 mos): 79.5%
percentage of patients: new multifocal with Gleason upgrade, entire prostate [1, 10]: 9.1 (p = 0.13) %
% Imp.: new multifocal with Gleason upgrade, entire prostate ([1]; FT 15 mg, <=36 mos): 79.2%
percentage of patients: new multifocal with Gleason upgrade, entire prostate [1, 11]: 20 (p = 0.039) %
% Imp.: new multifocal with Gleason upgrade, entire prostate ([1]; FT 15 mg, <=48 mos): 65%
percentage of patients: new multifocal with Gleason upgrade, entire prostate [1, 12]: 9.7 (p = 0.044) %
% Imp.: new multifocal with Gleason upgrade, entire prostate [1, 13]: 65.1%
percentage of patients: new multifocal with Gleason upgrade, entire prostate [1, 14]: 16.7 (P = 0.027) %
% Imp.: new multifocal with Gleason upgrade, entire prostate [1, 15]: 61.9%
percentage of patients: new multifocal with Gleason upgrade, entire prostate [1, 16]: 35.5%
% Imp.: new multifocal with Gleason upgrade, entire prostate [1, 17]: 37.8%
percentage of patients: hemi-prostate multifocal cancer with Gleason upgrade [2, 6]: 8.6%
% Imp.: hemi-prostate multifocal cancer with Gleason upgrade ([2]; FT 2.5 mg, <=18 mos): 54.26%
percentage of patients: hemi-prostate multifocal cancer with Gleason upgrade [2, 7]: 16.7%
% Imp.: hemi-prostate multifocal cancer with Gleason upgrade ([2]; FT 2.5 mg, <=36 mos): 53.2%
percentage of patients: hemi-prostate multifocal cancer with Gleason upgrade [2, 8]: 42.9%
% Imp.: hemi-prostate multifocal cancer with Gleason upgrade ([2]; FT 2.5 mg, <=48 mos): 5.7%
percentage of patients: hemi-prostate multifocal cancer with Gleason upgrade [2, 9]: 5.7%
% Imp.: hemi-prostate multifocal cancer with Gleason upgrade ([2]; FT 15 mg, <=18 mos): 69.7%
percentage of patients: hemi-prostate multifocal cancer with Gleason upgrade [2, 10]: 9.1 (p = 0.049) %
% Imp.: hemi-prostate multifocal cancer with Gleason upgrade ([2]; FT 15 mg, <=36 mos): 74.5%
percentage of patients: hemi-prostate multifocal cancer with Gleason upgrade [2, 11]: 13.3%
% Imp.: hemi-prostate multifocal cancer with Gleason upgrade ([2]; FT 15 mg, <=48 mos): 70.8%
percentage of patients: hemi-prostate multifocal cancer with Gleason upgrade [2, 12]: 7.1%
% Imp.: hemi-prostate multifocal cancer with Gleason upgrade [2, 13]: 62.2%
percentage of patients: hemi-prostate multifocal cancer with Gleason upgrade [2, 14]: 13.0 (p = 0.0549) %
% Imp.: hemi-prostate multifocal cancer with Gleason upgrade [2, 15]: 63.6%
percentage of patients: hemi-prostate multifocal cancer with Gleason upgrade [2, 16]: 27.6%
% Imp.: hemi-prostate multifocal cancer with Gleason upgrade [2, 17]: 39.3%
percentage of patients: cancer treatment with new multifocal and an increase in Gleason grade primary pattern, entire prostate [3, 6]: 0 (p = 0.001) %
% Imp.: cancer treatment with new multifocal and an increase in Gleason grade primary pattern, entire prostate ([3]; FT 2.5 mg, <=18 mos): 100%
percentage of patients: cancer treatment with new multifocal and an increase in Gleason grade primary pattern, entire prostate [3, 7]: 0 (p = 0.006) %
% Imp.: cancer treatment with new multifocal and an increase in Gleason grade primary pattern, entire prostate ([3]; FT 2.5 mg, <=36 mos): 100%
percentage of patients: cancer treatment with new multifocal and an increase in Gleason grade primary pattern, entire prostate [3, 8]: 0 (p = 0.0040) %
% Imp.: cancer treatment with new multifocal and an increase in Gleason grade primary pattern, entire prostate ([3]; FT 2.5 mg, <=48 mos): 100%
percentage of patients: cancer treatment with new multifocal and an increase in Gleason grade primary pattern, entire prostate [3, 9]: 2.6 (p = 0.06) %
% Imp.: cancer treatment with new multifocal and an increase in Gleason grade primary pattern, entire prostate ([3]; FT 15 mg, <=18 mos): 83.5%
percentage of patients: cancer treatment with new multifocal and an increase in Gleason grade primary pattern, entire prostate [3, 10]: 3.6 (p = 0.04) %
% Imp.: cancer treatment with new multifocal and an increase in Gleason grade primary pattern, entire prostate ([3]; FT 15 mg, <=36 mos): 84.7%
percentage of patients: cancer treatment with new multifocal and an increase in Gleason grade primary pattern, entire prostate [3, 11]: 4.2 (p = 0.019) %
% Imp.: cancer treatment with new multifocal and an increase in Gleason grade primary pattern, entire prostate ([3]; FT 15 mg, <=48 mos): 86.6%
percentage of patients: cancer treatment with new multifocal and an increase in Gleason grade primary pattern, entire prostate [3, 12]: 1.3 (p = 0.04) %
% Imp.: cancer treatment with new multifocal and an increase in Gleason grade primary pattern, entire prostate [3, 13]: 91.8%
percentage of patients: cancer treatment with new multifocal and an increase in Gleason grade primary pattern, entire prostate [3, 14]: 1.7 (p = 0.002) %
% Imp.: cancer treatment with new multifocal and an increase in Gleason grade primary pattern, entire prostate [3, 15]: 92.8%
percentage of patients: cancer treatment with new multifocal and an increase in Gleason grade primary pattern, entire prostate [3, 16]: 2.1 (p = 0.001) %
% Imp.: cancer treatment with new multifocal and an increase in Gleason grade primary pattern, entire prostate [3, 17]: 93.3%
percentage of patients: cancer treatment with new multifocal and an increase in Gleason grade primary pattern in the hemi-prostate [4, 6]: 0 (p = 0.025) %
% Imp.: cancer treatment with new multifocal and an increase in Gleason grade primary pattern in the hemi-prostate ([4]; FT 2.5 mg, <=18 mos): 100%
percentage of patients: cancer treatment with new multifocal and an increase in Gleason grade primary pattern in the hemi-prostate [4, 7]: 0 (p = 0.017) %
% Imp.: cancer treatment with new multifocal and an increase in Gleason grade primary pattern in the hemi-prostate ([4]; FT 2.5 mg, <=36 mos): 100%
percentage of patients: cancer treatment with new multifocal and an increase in Gleason grade primary pattern in the hemi-prostate [4, 8]: 0 (p = 0.031) %
% Imp.: cancer treatment with new multifocal and an increase in Gleason grade primary pattern in the hemi-prostate ([4]; FT 2.5 mg, <=48 mos): 100%
percentage of patients: cancer treatment with new multifocal and an increase in Gleason grade primary pattern in the hemi-prostate [4, 9]: 2.6%
% Imp.: cancer treatment with new multifocal and an increase in Gleason grade primary pattern in the hemi-prostate ([4]; FT 15 mg, <=18 mos): 75.2%
percentage of patients: cancer treatment with new multifocal and an increase in Gleason grade primary pattern in the hemi-prostate [4, 10]: 3.6%
% Imp.: cancer treatment with new multifocal and an increase in Gleason grade primary pattern in the hemi-prostate ([4]; FT 15 mg, <=36 mos): 79.5%
percentage of patients: cancer treatment with new multifocal and an increase in Gleason grade primary pattern in the hemi-prostate [4, 11]: 4.2%
% Imp.: cancer treatment with new multifocal and an increase in Gleason grade primary pattern in the hemi-prostate ([4]; FT 15 mg, <=48 mos): 77.7%
percentage of patients: cancer treatment with new multifocal and an increase in Gleason grade primary pattern in the hemi-prostate [4, 12]: 1.3 (p = 0.034) %
% Imp.: cancer treatment with new multifocal and an increase in Gleason grade primary pattern in the hemi-prostate [4, 13]: 87.6%
percentage of patients: cancer treatment with new multifocal and an increase in Gleason grade primary pattern in the hemi-prostate [4, 14]: 1.7 (p = 0.01) %
% Imp.: cancer treatment with new multifocal and an increase in Gleason grade primary pattern in the hemi-prostate [4, 15]: 90.3%
percentage of patients: cancer treatment with new multifocal and an increase in Gleason grade primary pattern in the hemi-prostate [4, 16]: 2.1 (p = 0.019) %
% Imp.: cancer treatment with new multifocal and an increase in Gleason grade primary pattern in the hemi-prostate [4, 17]: 88.8%
cellular effects [5]: selectively causes loss of cell membrane integrity, mitochondrial metabolic arrest, depletion of RNA, DNA lysis and aggregation, and cell fragmentation and cell loss
BCL pathways (activation of BIK, HRK, BCL2L10 and BCL3) [5, 18]: stimulates
caspase pathways (activation of caspases 7, 8, and 10, caspase recruitment domains 6, 11, and 14, and DIABLO) [5, 18]: stimulates
tumor necrosis factor pathways (activation of TNF1, TNFSF6, TNFSF8, TNFSF9, CD70 ligands, and TNFRSF19L, TNFRSF25, TRAF2, TRAF3, TRAF4, TRAF6 receptors) [5, 18]: stimulates
